Biological target: CFTR (Homo sapiens, UniProt P13569)
Experiment: standard Ussing Chamber Assay for CFTR potentiator activity
Assay type: cell-based

Sequence of CFTR (P13569 whole entry): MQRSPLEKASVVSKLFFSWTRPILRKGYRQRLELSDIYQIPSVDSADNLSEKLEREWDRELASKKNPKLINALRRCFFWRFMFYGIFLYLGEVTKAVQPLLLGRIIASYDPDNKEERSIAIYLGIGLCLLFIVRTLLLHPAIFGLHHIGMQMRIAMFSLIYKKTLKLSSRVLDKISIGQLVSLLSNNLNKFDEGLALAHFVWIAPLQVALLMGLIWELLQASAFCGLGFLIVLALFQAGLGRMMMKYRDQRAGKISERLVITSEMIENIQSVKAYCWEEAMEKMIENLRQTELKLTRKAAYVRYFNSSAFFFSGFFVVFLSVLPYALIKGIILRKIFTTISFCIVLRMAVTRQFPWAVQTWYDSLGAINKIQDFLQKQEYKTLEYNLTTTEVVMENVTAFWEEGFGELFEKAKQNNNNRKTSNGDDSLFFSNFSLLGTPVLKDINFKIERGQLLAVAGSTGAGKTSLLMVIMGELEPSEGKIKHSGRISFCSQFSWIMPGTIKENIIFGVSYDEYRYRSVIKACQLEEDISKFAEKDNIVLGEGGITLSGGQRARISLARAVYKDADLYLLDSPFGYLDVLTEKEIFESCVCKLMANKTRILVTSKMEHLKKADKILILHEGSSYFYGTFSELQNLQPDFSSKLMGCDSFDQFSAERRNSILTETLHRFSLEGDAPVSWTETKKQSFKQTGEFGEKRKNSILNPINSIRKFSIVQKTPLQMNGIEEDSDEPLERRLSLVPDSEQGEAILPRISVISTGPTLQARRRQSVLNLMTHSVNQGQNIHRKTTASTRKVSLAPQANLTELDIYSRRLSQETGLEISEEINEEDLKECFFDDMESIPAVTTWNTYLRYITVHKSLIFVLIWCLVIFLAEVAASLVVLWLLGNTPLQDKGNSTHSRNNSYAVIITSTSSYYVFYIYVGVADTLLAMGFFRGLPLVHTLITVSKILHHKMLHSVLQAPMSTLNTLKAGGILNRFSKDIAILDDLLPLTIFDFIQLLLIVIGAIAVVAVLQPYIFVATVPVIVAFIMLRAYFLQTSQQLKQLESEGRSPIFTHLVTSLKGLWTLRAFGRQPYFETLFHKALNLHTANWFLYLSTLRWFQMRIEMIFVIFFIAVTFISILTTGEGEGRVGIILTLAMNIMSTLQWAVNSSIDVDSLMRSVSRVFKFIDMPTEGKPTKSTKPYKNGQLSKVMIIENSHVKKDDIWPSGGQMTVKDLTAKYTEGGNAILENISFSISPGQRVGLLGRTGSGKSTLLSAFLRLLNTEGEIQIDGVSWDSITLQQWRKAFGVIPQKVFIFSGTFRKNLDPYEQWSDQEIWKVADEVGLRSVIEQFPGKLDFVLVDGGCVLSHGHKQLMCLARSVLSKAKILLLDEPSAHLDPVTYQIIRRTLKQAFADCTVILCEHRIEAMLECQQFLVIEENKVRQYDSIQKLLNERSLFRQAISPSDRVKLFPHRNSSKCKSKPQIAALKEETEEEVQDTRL

`C[C@@H]1CCCCC[C@](O)(C(F)(F)F)C2=NN=C(O2)c2nc(c(C(F)(F)F)cc2N)O1` [(6R,12R)-17-amino-12-methyl-6,15-bis(trifluoromethyl)-13,19-dioxa-3,4,18-triazatricyclo[12.3.1.12,5]nonadeca-1(18),2,4,14,16-pentaen-6-ol] was tested, and the CFTR modulatory activity was “confirmed”.

From patent US20230373935A1, “MODULATORS OF CYSTIC FIBROSIS TRANSMEMBRANE CONDUCTANCE REGULATOR” (VERTEX PHARMACEUTICALS INCORPORATED, priority 2020, published 2023)
